{"source": "patent US20160136138A1", "about": "“DRUG FOR TREATMENT OF NONALCOHOLIC FATTY LIVER DISEASE” (KOWA COMPANY, LTD., priority 2013, published 2016)", "key": {"[1]": {"tested_on": "KK-A^y mice fed with an MCD diet", "assay": "NASH model using KK-A^y mice fed with methionine-choline-deficient diet", "type": "in vivo", "conditions": "Compound A 0.25 mg/kg mixed in MCD diet (0.00026%), 16 weeks; scale 0 to 3", "method": "Effects on experimental animals, KK-A^y mice fed with a methionine-choline-deficient diet (MCD diet), which are known to develop fatty liver, a characteristic symptom of NASH (Nakano S. et al., Hepatol Res., 38(10), 1026-39, 2008) were examined.\nAs in Example 1, this experiment was conducted using (R)-2-[3-[[N-(benzoxazol-2-yl)-N-3-(4-methoxyphenoxy)propyl ]aminomethyl]phenoxy]butyric acid (Compound A), which is disclosed as Example 85 in Patent Document 1 listed above.\nMale KK-A^y mice (KK-A^y/TaJc1, CLEA Japan, Inc.) were used in the experiment. Beginning at around 12 weeks of age, the mice were freely fed with an MCD diet for 16 weeks to develop NASH. • 2) Grouping:\nThe mice were divided into a normal diet group, a control group (fed with an MCD diet), a Compound A 0.25 mg/kg administration group, and a bezafibrate 60 mg/kg administration group in such a way that there was no difference in weight between the groups. • 3) Drug administration:\nThe doses were mixed in the feed. The control group was fed with an MCD diet containing no drug. […]\nAfter the administration was completed, the livers were removed from the mice under pentobarbital sodium (50 mg/kg) anesthesia. […] Depending on the grade, the fatty liver was scored on a scale of 0 to 3 based on the following criteria. […]"}, "[2]": {"tested_on": "LDL receptor knockout mice NASH model", "assay": "Western diet-fed LDL receptor knockout mice NASH model", "type": "in vivo", "conditions": "12 weeks, vs control", "source_text": "Effects on Western diet-fed LDL receptor knockout mice (Non Patent Document 4), which are known to develop fatty liver and hepatic inflammation, characteristic symptoms of NASH were examined. […] Male LDL receptor knockout mice ([…], Jackson Laboratories) were used in the experiment. Beginning at around 8 weeks of age, the mice were freely fed with Teklad Custom Research Diet (TD.88137, Harlan Teklad) as a Western diet for 13 weeks to develop NASH. • 2) Grouping: After 1 week of the Western diet feeding, the mice were subjected to blood sampling and weighing. The mice were divided into a control group (0.5% methyl cellulose aqueous solution), a Compound A 0.5 mg/kg administration group, and a fenofibrate 100 mg/kg administration group in such a way that there was no difference in plasma lipid level and weight between the groups. […] The administration period was 12 weeks. After the administration was completed, the livers were removed from the mice under pentobarbital sodium (50 mg/kg) anesthesia. The livers were fixed with paraformaldehyde and then subjected to the preparation of hematoxylin-eosin stained samples and immunostained samples for CD68 detection. In a blind study setting, using the hematoxylin-eosin stained samples, ballooning of hepatocytes was scored based on the following criteria (Kleiner et al. Hepatology 41, 1313-21, 2005). No balloon cells: 0 Few balloon cells: 1 Many balloon cells or ballooning: 2 The CD68 positive area in liver was measured with an image analysis system (WinROOF) in a blind study. The statistical analysis was performed using Stat […] Information Technology Inc.) (Ver. 1.1). Dunnett's test (N=14-15) was used for comparison with the control group, in which a significant difference with p<0.05 is indicated by the symbol *, and a significant difference with p<0.001 is indicated by the symbol ***."}}}
{"smiles": "CC[C@@H](Oc1cccc(CN(CCCOc2ccc(OC)cc2)c2nc3ccccc3o2)c1)C(=O)O", "note": "[Compound A, (R)-2-[3-[[N-(benzoxazol-2-yl)-N-3-(4-methoxyphenoxy)propyl]aminomethyl]phenoxy]butyric acid]", "values": [{"measurement": "steatosis score", "setting": "[1]", "value": 0}, {"measurement": "CD68 positive area in liver, reduction rate", "setting": "[2]; Compound A 0.5 mg/kg orally once a day", "value": 81, "unit": "%"}, {"measurement": "ballooning of hepatocytes (score)", "setting": "[2]; Compound A 0.5 mg/kg orally once a day, Dunnett's test", "value": "significant suppression of ballooning of hepatocytes"}]}
{"smiles": "CC(C)OC(=O)C(C)(C)Oc1ccc(C(=O)c2ccc(Cl)cc2)cc1", "note": "[fenofibrate, reference compound]", "values": [{"measurement": "CD68 positive area in liver, reduction rate", "setting": "[2]; fenofibrate 100 mg/kg orally once a day", "value": 73, "unit": "%"}]}
